Columns and labels:
humans = details: intranasal or sublingual routes; cited from earlier work
mice = test: PCP-induced locomotor hyperactivity; type: in vivo, mouse
Procedure: (A). DOI, a hallucinogen and 5-HT2A agonist, was administered IP 10 min after SC administration of vehicle or test drug. A and then HTR activity was assessed for 30 minutes. *p<0.001, significant difference vs. vehicle (B). Vehicle or the NMDA receptor antagonist PCP (5 mg/kg) was injected IP 10 min after SC administration of vehicle or 25N-NB1-Nap (16), and then the mice were placed in the test chambers 10 min later for a 60-min assessment of locomotor activity. (C). […] Mice were treated with vehicle or M100907 (0.03 mg/kg SC) 10 min prior to vehicle or PCP (5 mg/kg IP): animals were placed in the test chambers 10 min after treatment with PCP. Animals were tested for 60 min. *p<0.01 vs. vehicle: ^#p<0.01 vs. PCP alone.
Male C57BL/6J mice (6-8 weeks old) from Jackson Labs (Bar Harbor, ME, USA) were used for the behavioral experiments. The mice were housed on a reversed light-dark cycle (lights on at 1900 h, off at 0700 h) in an AAAC-approved vivarium at the University of California San Diego. Mice were housed up to four per cage in a climate-controlled room and with food and water provided ad libitum except during behavioral testing. Testing was performed between 1000 and 1800 h (during the dark phase of the light-dark cycle). The studies were conducted in accordance with National Institutes Health (NIH) guidelines and were approved by the University of California San Diego Institutional Animal Care and Use Committee.
Edelfosine, DOI, R—(−)-DOI, and PCP were injected IP (5 mL/kg): 25N—NB and its derivatives were injected SC (5 mL/kg or 10 mL/kg): YM-254,890 was injected into the lateral ventricle (2 μL) over 1 min.
The mouse behavioral pattern monitor (BPM) was used to assess locomotor activity. Each mouse BPM chamber (San Diego Instruments, San Diego, CA, USA) is a transparent Plexiglas box with an opaque 30×60 cm floor, enclosed in a ventilated isolation box. The position of the mouse in x.y coordinates is recorded by a grid of 12×24 infrared photobeams located 1 cm above the floor. A second row of 16 photobeams (parallel to the long axis of the chamber, located 2.5 cm above the floor) is used to detect rearing behavior. Holepoking behavior is detected by 11 1.4-cm holes that are situated in the walls (3 holes in each long wall, 2 holes in each short wall) and the floor ([…]); each hole is equipped with an infrared photobeam. The status of each photobeam is sampled every 55 ms and recorded for offline analysis. Locomotor activity was quantified as distance traveled, which was analyzed in 20-min blocks using a three-way ANOVA, with pretreatment and treatment as between subject variables and time as a within-subject variable. Tukey's studentized range method was used for post hoc comparisons.

male C57BL/6J mice = test: Tolerance: DOI-induced HTR after 5 days repeated treatment; type: in vivo, mouse; details: 5 days SC: 25N-N1-Nap 20, DOI 10, pimavanserin 1 mg/kg/day
Procedure: The mice were allowed to recover from the magnet implantation surgeries for at least 1 week prior to behavioral testing. HTR experiments were conducted in a well-lit room, and the mice were allowed to habituate to the room for at least 1 h prior to testing. Head twitches was assessed in a 12-cm diameter glass cylinder surrounded by a magnetometer coil. Coil voltage was low-pass filtered (2 kHz), amplified, and digitized (20-kHz sampling rate) using a Powerlab/8SP with LabChart v 7.3.2 (ADInstruments, Colorado Springs, CO, USA). […] HTR counts were analyzed using one-way ANOVAs. Dunnett's test was used for post hoc comparisons.

Row | Compound | Active dose in humans (humans) [mg] | Effect on baseline locomotor activity (mice; 3 mg/kg SC) | Effect on PCP-induced locomotor hyperactivity (mice; PCP 5 mg/kg IP, 25N-N1-Nap 3 mg/kg SC, M100907 0.03 mg/kg SC) | Ability of DOI (1 mg/kg IP) to induce the HTR after repeated daily treatment (male C57BL/6J mice)
1 | COc1cc([N+](=O)[O-])c(OC)cc1CCNCc1ccccc1OC [25N-NBOMe (4), [2-(2,5-dimethoxy-4-nitrophenyl)ethyl] [(2-methoxyphenyl)methyl]amine] | 0.3 to 0.8 |  |  | 
2 | COc1cc([N+](=O)[O-])c(OC)cc1CCNCc1cccc2ccccc12 [25N-N-1-Nap (16), [2-(2,5-dimethoxy-4-nitrophenyl)ethyl][(naphthalen-1-yl)methyl]amine] |  | had no effect | antagonized | reduced significantly

Source: US20240254087A1, “SELECTIVE, PARTIAL, AND ARRESTIN-BIASED 5-HT2A AGONISTS WITH UTILITY IN VARIOUS DISORDERS” (Saint Joseph's University, priority 2021, published 2024)
